Patent publication US20170342064A1, “COMPOUNDS FOR THE TREATMENT OF CANCER” (Bayer Pharma Aktiengesellschaft, priority 2014, published 2017)

Tests used:
[1] = In vitro stability in rat plasma (HPLC detection); format: in vitro ADME, wistar rat; settings: 37° C., HPLC peak area ratio
Description: (§1) 1 mg of test compound is dissolved in 1.25 ml dimethylsulfoxide. Then 1.25 ml water are added. 0.5 ml of this sample solution are mixed with 0.5 ml heparinized and 37° C. warm plasma (wistar rat plasma or human plasma). A first sample (10 μl) is immediately taken for HPLC analysis. In the period up to 4 h after the start of incubation further 10 μl aliquots are taken after 30, 60, 90, 120 and 240 minutes and the amount of the test compound is determined. Agilent 1100 with DAD (G1315A), binary pump (G1312A), autosampler (G1329A), column oven (G1316A), thermostat (G1330B); column: Kromasil 100 C18, 250 mm×4 mm, 5 μm; column temperature: 45° C.; eluent A: water+5 ml of perchloric acid/litre, eluent B: acetonitrile. 0 min 98% A, 2% B→0-3.0 min 85% A, 15% B→3.0-8.0 min 55% A, 45% B→8.0-16.0 min 55% A, 45% B→16.0-20.0 min 10% A, 90% B→20.0-21.0 10% A, 90% B→21.0-24.0 min 98% A, 2% B→24.0-25.0 min 98% A, 2% B; flow rate: 1.5 ml/min; UV detection: 222 nm.

[2] = Stability in buffer at pH 7.4; format: physicochemical; settings: buffer pH 7.4, 37° C., HPLC peak area ratio
Description: 0.3 mg of the test compound are solved in 0.1 ml dimethylsulfoxide and 0.4 ml acetonitrile. For complete dissolution the HPLC vial with the sample solution is sonified for about 20 seconds. Then 1.0 ml of the buffer solution is added, and the sample is again treated in the ultrasonic bath. 90 g of sodium chloride, 13.61 g of potassium dihydrogen phosphate and 83.35 g of 1 M sodium hydroxide solution are made up to 1 litre with Millipore water and then diluted 1:10. 10 μl portions of the sample solution are analysed by HPLC to determine the amount of the test compound over a period of 24 hours at 37° C. The peak areas in percentage are used for quantification. Agilent 1100 with DAD (G1315B), binary pump (G1312A), autosampler (G1329A), column oven (G1316A), thermostat (G1330B); column: Kromasil 100 C18, 250 mm×4 mm, 5 μm; column temperature: 37° C.; eluent A: water+5 ml of perchloric acid/litre, eluent B: acetonitrile. 0 min 98% A, 2% B→0-3.0 min 85% A, 15% B→3.0-8.0 min 50% A, 50% B→8.0-16.0 min 50% A, 50% B→16.0-20.0 min 10% A, 90% B→20.0-21.0 10% A, 90% B→21.0-24.0 min 98% A, 2% B→24.0-25.0 min 98% A, 2% B; flow rate: 1.5 ml/min; UV detection: 210 nm. The ratio of the peak areas (F) at different time points in relation to the peak areas at the starting time are shown in Table 1 for representative examples: […]

[3] = In vitro stability in human plasma (HPLC detection); format: in vitro ADME; settings: 37° C., HPLC peak area ratio
Description: as §1

[4] = system: HeLa human cervical tumor cells; assay: Proliferation assay (crystal violet), HeLa cells; format: cell-based; settings: 96 h, 4 days incubation, crystal violet staining, read-out: Inhibition of cell proliferation, cell Line: HeLa IC50
Description: Cultivated tumor cells (MCF7, hormone dependent human mammary carcinoma cells, ATCC HTB22; NCI-H460, human non-small cell lung carcinoma cells, ATCC HTB-177; DU 145, hormone-independent human prostate carcinoma cells, ATCC HTB-81; HeLa-MaTu, human cervical carcinoma cells, EPO-GmbH, Berlin; HeLa-MaTu-ADR, multidrug-resistant human cervical carcinoma cells, EPO-GmbH, Berlin; HeLa human cervical tumor cells, ATCC CCL-2; B16F10 mouse melanoma cells, ATCC CRL-6475) were plated at a density of 5000 cells/well (MCF7, DU145, HeLa-MaTu-ADR), 3000 cells/well (NCI-H460, HeLa-MaTu, HeLa), or 1000 cells/well (B16F10) in a 96-well multititer plate in 200 μl of their respective growth medium supplemented 10% fetal calf serum. After 24 hours, the cells of one plate (zero-point plate) were stained with crystal violet (see below), while the medium of the other plates was replaced by fresh culture medium (200 μl), to which the test substances were added in various concentrations (0 μM, as well as in the range of 0.01-30 μM; the final concentration of the solvent dimethyl sulfoxide was 0.5%). The cells were incubated for 4 days in the presence of test substances. Cell proliferation was determined by staining the cells with crystal violet: the cells were fixed by adding 20 μl/measuring point of an 11% glutaric aldehyde solution for 15 minutes at room temperature. After three washing cycles of the fixed cells with water, the plates were dried at room temperature. The cells were stained by adding 100 μl/measuring point of a 0.1% crystal violet solution (pH 3.0). After three washing cycles of the stained cells with water, the plates were dried at room temperature. The dye was dissolved by adding 100 μl/measuring point of a 10% acetic acid solution. The extinction was determined by photometry at a wavelength of 595 nm. The change of cell number, in percent, was calculated by normalization of the measured values to the extinction values of the zero-point plate (=0%) and the extinction of the untreated (0 μm) cells (=100%). The IC50 values were determined by means of a 4 parameter fit.
The reference examples described above are characterized by the following IC50 values, determined in a HeLa cell proliferation assay (as described above): […]

Structure (SMILES) | IC50 [4] [nM] | also measured
C[C@@H](C(=O)Nc1ccc(-c2ccn3nc(N(C(=O)OCOC(=O)[C@@H](N)C(C)(C)C)c4ccc(C(=O)N5CC(F)C5)cc4OCC(F)(F)F)nc3c2)cc1)c1ccc(F)cc1.Cl [Example 1.1, [({4-[(3-fluoroazetidin-1-yl)carbonyl]-2-(2,2,2-trifluoroethoxy)phenyl}[7-(4-{[(2R)-2-(4-fluorophenyl)propanoyl]amino}phenyl)[1,2,4]triazolo[1,5-a]pyridin-2-yl]carbamoyl)oxy]methyl 3-methyl-L-valinate hydrochloride] |  | % Test Compound after 4 h [F(t = 24 h) × 100/F(t = 0 h)] [1]: 0.0%; % Test Compound after 24 h [F(t = 24 h) × 100/F(t = 0 h)] [2]: 0.0%; % Test Compound after 4 h [F(t = 24 h) × 100/F(t = 0 h)] [3]: 0.0%
COc1cc(S(C)(=O)=O)ccc1Nc1nc2cc(-c3ccc(NC(=O)[C@H](C)c4ccc(F)cc4)cc3)ccn2n1 [01.01, (2R)-2-(4-fluorophenyl)-N-[4-(2-{[2-methoxy-4-(methylsulfonyl)phenyl]amino}[1,2,4]triazolo[1,5-a]pyridin-7-yl)phenyl]propanamide] | ≤ 200 | 
C[C@@H](C(=O)Nc1ccc(-c2ccn3nc(Nc4ccc(C(=O)N5CC(F)C5)cc4OCC(F)(F)F)nc3c2)cc1)c1ccc(F)cc1 [Reference Example 01.03, (2R)—N-{4-[2-({4-[(3-fluoroazetidin-1-yl)carbonyl]-2-(2,2,2-trifluoroethoxy)phenyl}amino)[1,2,4]triazolo[1,5-a]pyridin-7-yl]phenyl}-2-(4-fluorophenyl)propanamide] | ≤ 100 | 
COc1cc(C(=O)N2CCC2)ccc1Nc1nc2cc(-c3ccc(NC(=O)[C@H](C)c4ccc(F)cc4)cc3)ccn2n1 [Reference Example 01.06, (2R)—N-[4-(2-{[4-(azetidin-1-ylcarbonyl)-2-methoxyphenyl]amino}[1,2,4]triazolo[1,5-a]pyridin-7-yl)phenyl]-2-(4-fluorophenyl)propanamide] | ≤ 100 | 
COc1cc(C(=O)N2CC(F)C2)ccc1Nc1nc2cc(-c3ccc(NC(=O)[C@H](C)c4ccc(F)cc4)cc3)ccn2n1 [Reference Example 01.02, (2R)—N-{4-[2-({4-[(3-fluoroazetidin-1-yl)carbonyl]-2-methoxyphenyl}amino)[1,2,4]triazolo[1,5-a]pyridin-7-yl]phenyl}-2-(4-fluorophenyl)propanamide] | ≤ 100 | 
C[C@@H](C(=O)Nc1ccc(-c2ccn3nc(Nc4ccc(S(C)(=O)=O)cc4OCC(F)(F)F)nc3c2)cc1)c1ccc(F)cc1 [Reference Example 01.05, (2R)-2-(4-fluorophenyl)-N-[4-(2-{[4-(methylsulfonyl)-2-(2,2,2-trifluoroethoxy)phenyl]amino}[1,2,4]triazolo[1,5-a]pyridin-7-yl)phenyl]propanamide] | ≤ 100 | 
